Measured values taken from patent publication US5122381A, “Composition and process for dissolving a sparingly water-soluble flavonoid” (San-Ei Chemical Industries, Ltd., priority 1989, dated 1992).

Legend:
[1] = Dissolution of Rutin: precipitation observed on standing with Glycoside I; format: physicochemical; set-up: key: ++: indicating the greatest degree of precipitation; +: precipitation was observed; -: indicating no observed precipitation; conditions: 0.04 wt % rutin
Description: (§1) Water (100 ml) containing 12 W/V% of granulated sugar and 0.3 W/V% of citric acid was poured into each of five test tubes (100 ml) No. 1 to 5, to which 0.4 ml of rutin (10 W/V%) solution in ethanol (equivalent to 0.04 g of rutin) was added. Immediately thereafter, mixed was a solution of the Glycoside I (13.4 W/V%) in ethanol in amounts of 0.024 ml, 0.032 ml, 0.04 ml and 0.05 ml respectively to the test tubes No. 2 to 5. These amounts were equivalent to 8.0 wt. %, 10.8 wt. %, 13.5 wt. % and 16.0 wt. %, respectively relative to the amount of rutin.
(§2) All of these mixtures including No. 1 to which the Glycoside I had not been added were transparent when observed immediately after mixing. After standing for 24 hours, some mixtures were recognized to have precipitation. Standing was continued for 14 days at room temperature in observing precipitation states of the mixtures. On completion of this standing, rutin concentration of each supernatant liquid of the mixtures was measured using high-speed liquid chromatography.
The "+" and "-" signs in Table 1 denote comparative amounts of precipitation of the rutin. The range extends from "++", indicating the greatest degree of precipitation, down to "-", indicating no observed precipitation.

[2] = Dissolution of Rutin: rutin remaining in solution (supernatant, high-speed liquid chromatography); format: physicochemical; conditions: 13.5 wt. % of Glycoside I relative to rutin; standing 14 days at room temperature
Description: as §1, §2

Precipitation Observed ([1]; No. 1, Glycoside I 0 wt % relative to rutin, 1st day): + + | Precipitation Observed ([1]; No. 1, Glycoside I 0 wt % relative to rutin, 3rd day): + + | Precipitation Observed ([1]; No. 1, Glycoside I 0 wt % relative to rutin, 6th day): + + | Precipitation Observed ([1]; No. 1, Glycoside I 0 wt % relative to rutin, 14th day): + + | Precipitation Observed ([1]; No. 2, Glycoside I 8.0 wt % relative to rutin, 1st day): + | Precipitation Observed ([1]; No. 2, Glycoside I 8.0 wt % relative to rutin, 3rd day): + | Precipitation Observed ([1]; No. 2, Glycoside I 8.0 wt % relative to rutin, 6th day): + | Precipitation Observed ([1]; No. 2, Glycoside I 8.0 wt % relative to rutin, 14th day): + | rutin stably dissolved in water [2]: at least 0.04 wt. %
Structure (SMILES): C[C@@H]1O[C@@H](OC[C@H]2O[C@@H](Oc3c(-c4ccc(O)c(O)c4)oc4cc(O)cc(O)c4c3=O)[C@H](O)[C@@H](O)[C@@H]2O)[C@H](O)[C@H](O)[C@H]1O [Rutin]
